Reference: patent publication US12692396B2, “Fluorescent labeling agent and fluorescent dye” (artience Co., Ltd., priority 2020, dated 2026)

Columns and labels:
[1] = tested on: Human epithelium cancer cells A431; test: Evaluation of cell toxicity of fluorescent labeling agent (cell counting kit-8, absorbance at 450 nm); assay type: cell-based; details: labeling agent left one hour, absorbance relative to DMSO medium solution regarded as one
Description: <Evaluation of Cell Toxicity of Fluorescent Labeling Agent>
(§1) Human epithelium cancer cells A431 were seeded in a 96-well plate (1×10^4 cells/well). Next, the A431 were cultured for 24 hours using an RPMI 1640 medium to which 10% fetal bovine serum (FBS) and 1% penicillin-streptomycin had been added in an incubator (37° C., 5% CO2-containing Air, humidified environment). As the RPMI 1640 medium, an RPMI-164-Medium manufactured by Sigma-Aldrich Inc. was used.
After cultivation, the medium was removed, the fluorescent labeling agents prepared in Examples 83 to 123 and Comparative Examples 25 to 37 and an RPMI 1640 medium containing 1% dimethyl sulfoxide (DMSO medium solution) were added thereto. These were left to stand in the incubator for one hour and then washed in the RPMI 1640 medium. 10 μL of a cell counting kit-8 (manufactured by Dojindo Laboratories.) was added to each well and left to stand in the incubator (37° C., 5% CO2-containing Air, humidified environment) for one hour. Next, the absorbance at 450 nm was measured using a plate reader (SPARK, manufactured by Tecan Trading AG).
The relative value of the absorbance of each fluorescent labeling agent when the absorbance of the well to which the DMSO medium solution had been added was regarded as one was calculated and evaluated based on the following standards. […] At the time of calculating the relative value of the absorbance of the fluorescent labeling agent, a value obtained by subtracting the absorbance before the addition of the cell counting kit-8 (manufactured by Dojindo Laboratories.) from the measured absorbance was used.
• P (Pass): 0.8 or more • F (Failure): Less than 0.8 <Evaluation of Fluorescence Intensity of Fluorescent Labeling Agent>

[2] = tested on: Human epithelium cancer cells A431; test: Evaluation of fluorescence intensity of fluorescent labeling agent in labeled cells (plate reader); assay type: cell-based; details: one hour, FIG. 1, compared with fluorescent labeling agents 68 and 75
Description: as §1, with “environment).” for “environment). As the RPMI 1640 medium, an RPMI-164-Medium manufactured by Sigma-Aldrich Inc. was used.”
After cultivation, the medium was removed, and the fluorescent labeling agents prepared in Examples 127 to 167 and Comparative Examples 25 to 37 were added thereto and left to stand in the incubator for one hour. Next, these were washed in the RPMI 1640 medium. The fluorescence intensities were evaluated in fluorescence wavelength ranges shown in Table 22 using the plate reader (SPARK, manufactured by Tecan Trading AG).

phospholipids = test: Evaluation of property of fluorescent dye being accumulated in phospholipids (labeling agent intensity / dye solution intensity); assay type: cell-based, Human; details: A431 cells, one hour; relative value, comparative compound 12 regarded as one; fluorescent wavelength range as in Table 22 (780-800 nm, 630-650 nm in last line)
Description: <Evaluation of Property of Fluorescent Dye being Accumulated in Phospholipids>
The property of each dye being accumulated in phospholipids was calculated from the fluorescence intensity integral value obtained from the fluorescent spectrum of the dye solution and the fluorescence intensity obtained from the fluorescence intensity of the fluorescent labeling agent using an expression (1). The relative value of the property of each fluorescent labeling agent being accumulated in phospholipids when the property of the comparative compound 12 being accumulated in phospholipids was regarded as one was calculated and evaluated based on the following standards. In a case where the relative value is evaluated as 3 or more, it can be said that each fluorescent dye has a favorable property of being accumulated in phospholipids.
• 4: The property of being accumulated in phospholipids is 4 or more. • 3: The property of being accumulated in phospholipids is 2 or more and less than 4. • 2: The property of being accumulated in phospholipids is 1 or more and less than 2. • 1: The property of being accumulated in phospholipids is less than 1. Property of being accumulated in phospholipids=fluorescence intensity of fluorescent labeling agent/fluorescence intensity of dye solution (1)

[3] = tested on: Human epithelium cancer cells A431; test: Evaluation of visibility of cell (fluorescent microscope); assay type: cell-based; parameters: key: P (Pass): Clear; F (Failure): Unclear; details: A431 cells, labeling agent left one hour
Description: <Evaluation of Visibility of Cell>
as §1, with “The” for “Next, the”, “environment).” for “environment). As the RPMI 1640 medium, an RPMI-164-Medium manufactured by Sigma-Aldrich Inc. was used.”
After cultivation, the medium was removed, and the fluorescent labeling agents prepared in Examples 127 to 189 and Comparative Examples 25 to 37 were added thereto and left to stand in the incubator for one hour. Next, these were washed in the RPMI 1640 medium. The dark field images and fluorescent images of the cells were observed using a fluorescent microscope (manufactured by Keyence Corporation, BZ-X800) equipped with an excitation filter for an appropriate wavelength and a fluorescent filter and evaluated based on the following standards.
• P (Pass): Clear • F (Failure): Unclear
The evaluation results of the visibility of the cells labeled with the fluorescent labeling agents 1, 15, 19, 24, 25, 68, and 75 are sequentially shown in FIGS. 2 to 8 (magnification: 10 times, optical uptake time: 1 second).
The evaluation results of the visibility of the cells labeled with the fluorescent labeling agents 42 and 53 are sequentially shown in FIGS. 9 to 10 (magnification: 40 times, optical uptake time: 1 second).
From what has been described above, it has been clarified that the fluorescent labeling agent according to the embodiment of the present invention has excellent characteristics as a fluorescent labeling agent.

SMILES | Cell toxicity [1] | fluorescence intensity of fluorescent labeling agent [2] | Property of being accumulated in phospholipids (phospholipids) | Cell visibility [3]
CCOc1cccc2c1C1=NC2=Nc2c3c(OCC)cccc3c3[n]2[Al]([O][Si](C)(C)CCCN)[n]2c(c4cccc(OCC)c4c2=NC2=NC(=N3)c3c(OCC)cccc32)=N1 [Fluorescent dye 1] | P (P (Pass): 0.8 or more) | high fluorescence intensities | 4 (4: The property of being accumulated in phospholipids is 4 or more.) | P
C[Si](C)(CCCN)[O][Al]1[n]2c3c4cc(-c5ccccc5)ccc4c2N=C2N=C(N=c4c5cc(-c6ccccc6)ccc5c([n]41)=NC1=NC(=N3)c3ccc(-c4ccccc4)cc31)c1ccc(-c3ccccc3)cc12 [Fluorescent dye 2] | P (P (Pass): 0.8 or more) |  | 4 (4: The property of being accumulated in phospholipids is 4 or more.) | P
CC(C)C(CC(=O)O)C(=O)NCCc1ccc(S(=O)(=O)[O][Al]2[n]3c4c5cc(C(C)(C)C)ccc5c3N=C3N=C(N=c5c6cc(C(C)(C)C)ccc6c([n]52)=NC2=NC(=N4)c4ccc(C(C)(C)C)cc42)c2ccc(C(C)(C)C)cc23)cc1 (centres unmarked) [Fluorescent dye 29] | P (P (Pass): 0.8 or more) |  | 4 (4: The property of being accumulated in phospholipids is 4 or more.) | P
CCOc1cccc2c1C1=NC2=Nc2c3c(OCC)cccc3c3[n]2[Al]([O]C(=O)CCN(C)C)[n]2c(c4cccc(OCC)c4c2=NC2=NC(=N3)c3c(OCC)cccc32)=N1 [Fluorescent dye 14] | P (P (Pass): 0.8 or more) |  | 4 (4: The property of being accumulated in phospholipids is 4 or more.) | P
CCOc1cccc2c1C1=NC2=Nc2c3c(OCC)cccc3c3[n]2[Al]([O]P(=O)(CCC(=O)O)c2ccccc2)[n]2c(c4cccc(OCC)c4c2=NC2=NC(=N3)c3c(OCC)cccc32)=N1 (centres unmarked) [Fluorescent dye 15] | P (P (Pass): 0.8 or more) | high fluorescence intensities | 4 (4: The property of being accumulated in phospholipids is 4 or more.) | P
CCOc1cccc2c1C1=NC2=Nc2c3c(OCC)cccc3c3n2[Si](O)(OP(=O)(CCC(=O)O)c2ccccc2)n2c(c4cccc(OCC)c4c2=NC2=NC(=N3)c3c(OCC)cccc32)=N1 (centres unmarked) [Fluorescent dye 16] | P (P (Pass): 0.8 or more) |  | 4 (4: The property of being accumulated in phospholipids is 4 or more.) | P
O=C(O)C(F)(F)C(F)(F)C(=O)NCCc1ccc(S(=O)(=O)[O][Al]2[n]3c4c5cc(C(F)(F)F)ccc5c3N=C3N=C(N=c5c6cc(C(F)(F)F)ccc6c([n]52)=NC2=NC(=N4)c4ccc(C(F)(F)F)cc42)c2ccc(C(F)(F)F)cc23)cc1 [Fluorescent dye 27] | P (P (Pass): 0.8 or more) |  | 4 (4: The property of being accumulated in phospholipids is 4 or more.) | P
CCOc1cccc2c1C1=NC2=Nc2c3c(OCC)cccc3c3[n]2[Al]([O]P(=O)(O)CCC(=O)O)[n]2c(c4cccc(OCC)c4c2=NC2=NC(=N3)c3c(OCC)cccc32)=N1 [Fluorescent dye 17] | P (P (Pass): 0.8 or more) |  | 4 (4: The property of being accumulated in phospholipids is 4 or more.) | P
CCCCCCCCCCCCCCCCCCc1ccc2c(c1)C1=NC2=Nc2c3cc(CCCCCCCCCCCCCCCCCC)ccc3c3[n]2[Al]([O]S(=O)(=O)c2ccc(CCNC(=O)C(CC(=O)O)OC(C)=O)cc2)[n]2c(c4ccc(CCCCCCCCCCCCCCCCCC)cc4c2=NC2=NC(=N3)c3cc(CCCCCCCCCCCCCCCCCC)ccc32)=N1 (centres unmarked) [Fluorescent dye 28] | P (P (Pass): 0.8 or more) |  | 4 (4: The property of being accumulated in phospholipids is 4 or more.) | P
